Results taken from PMC8222176 (Acta biomaterialia, 2021).

Key:
[1] = target: T1, MelBEc (Escherichia coli, UniProt P02921); details: read-out: Apparent Kd, in the presence of Na+; cited from earlier work
[2] = target: T2, MelBSt (Salmonella typhimurium, UniProt P30878); details: read-out: Apparent Kd, in the presence of Na+; cited from earlier work
[3] = tested on: LeuT; test: LeuT stability assay; type: biochemical, Aquifex aeolicus; details: detergent at CMC + 0.04 wt%, 13-day incubation, room temperature
[4] = Water-solubility of detergents; type: physicochemical; details: in water
[5] = target: T1, MelBEc; test: MelB Trp→D2G FRET assay; type: biochemical, E. coli; details: MelBEc extracted with 1.0 wt% detergent
[6] = target: T2, MelBSt; type: biochemical; details: MelBSt extracted with 1.0 wt% detergent
[7] = target: T2, MelBSt; details: 1.5 wt% detergent, further 90 min at 55 °C
[8] = Hydrodynamic diameter of detergent self-assemblies by dynamic light scattering; type: physicochemical; details: 1.0 wt% detergent, water, room temperature, n = 4
[9] = target: μ-opioid receptor (MOR) (Mus musculus, UniProt P42866); test: MOR stability assay; type: biochemical; details: 0.1 wt% detergent, 3-day incubation at room temperature
[10] = type: physicochemical; details: in water at room temperature; DPH dye

T2 sequence (P30878 whole entry): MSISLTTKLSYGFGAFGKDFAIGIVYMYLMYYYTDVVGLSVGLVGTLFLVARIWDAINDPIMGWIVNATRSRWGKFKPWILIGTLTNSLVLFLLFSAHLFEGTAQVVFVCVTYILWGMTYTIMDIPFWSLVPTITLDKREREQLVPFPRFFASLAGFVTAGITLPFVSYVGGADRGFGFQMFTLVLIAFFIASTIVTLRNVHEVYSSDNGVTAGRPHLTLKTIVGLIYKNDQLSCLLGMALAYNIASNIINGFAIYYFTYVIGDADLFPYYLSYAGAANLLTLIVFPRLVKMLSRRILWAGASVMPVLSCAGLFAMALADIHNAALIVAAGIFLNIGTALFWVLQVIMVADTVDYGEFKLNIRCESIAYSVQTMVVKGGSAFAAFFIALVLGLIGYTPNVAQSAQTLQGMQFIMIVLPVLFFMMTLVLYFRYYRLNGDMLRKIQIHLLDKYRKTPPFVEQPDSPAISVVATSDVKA
T1 sequence (P02921 whole entry): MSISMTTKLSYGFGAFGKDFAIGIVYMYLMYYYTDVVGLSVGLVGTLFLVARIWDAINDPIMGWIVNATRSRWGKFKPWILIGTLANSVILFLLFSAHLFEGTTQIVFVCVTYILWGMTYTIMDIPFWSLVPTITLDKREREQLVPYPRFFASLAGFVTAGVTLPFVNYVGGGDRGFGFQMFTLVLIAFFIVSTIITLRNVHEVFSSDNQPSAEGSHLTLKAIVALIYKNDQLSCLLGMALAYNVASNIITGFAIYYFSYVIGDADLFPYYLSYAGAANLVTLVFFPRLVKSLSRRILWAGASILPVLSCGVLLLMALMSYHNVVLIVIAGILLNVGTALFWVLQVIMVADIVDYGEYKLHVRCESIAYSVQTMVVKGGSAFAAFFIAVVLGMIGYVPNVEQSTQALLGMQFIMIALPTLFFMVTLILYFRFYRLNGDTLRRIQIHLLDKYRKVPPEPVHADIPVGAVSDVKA
Chain of μ-opioid receptor (MOR) (P42866 whole entry): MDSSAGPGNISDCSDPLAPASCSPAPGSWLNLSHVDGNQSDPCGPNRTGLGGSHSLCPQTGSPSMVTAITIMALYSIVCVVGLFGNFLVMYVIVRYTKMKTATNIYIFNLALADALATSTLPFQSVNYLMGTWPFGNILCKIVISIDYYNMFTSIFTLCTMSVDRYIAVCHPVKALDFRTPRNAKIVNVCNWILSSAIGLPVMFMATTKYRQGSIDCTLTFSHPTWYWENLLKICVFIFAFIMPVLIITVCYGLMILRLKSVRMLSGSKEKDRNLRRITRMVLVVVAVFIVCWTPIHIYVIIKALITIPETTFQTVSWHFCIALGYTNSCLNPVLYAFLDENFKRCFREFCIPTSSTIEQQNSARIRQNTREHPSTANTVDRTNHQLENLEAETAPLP

Compound | Kd [1] | Kd [2] | LeuT long-term stability ([3H]-Leu binding ability) [3] | Solubility (water-solubility) [4] | fluorescence response to D2G and melibiose (MelB function) [5] | fluorescence response to D2G and melibiose (MelB function) [6] | soluble MelBSt after incubation [7] | Dh (hydrodynamic diameter of aggregates) [8] | MOR long-term stability ([3H]-DPN binding ability) [9] | CAC (critical aggregation concentration) [10]
CN(C)c1cccc2c(S(=O)(=O)NCCS[C@@H]3O[C@H](CO)[C@H](O)[C@H](O)[C@H]3O)cccc12 [D^2G, 2′-(N-Dansyl)aminoalkyl-1-thio-β-D-galactopyranoside] | 3.1 µM | 10.3 µM | – | – | – | – | – | – | – | –
OC[C@H]1O[C@H](OCC2O[C@@H](O)[C@H](O)[C@@H](O)[C@@H]2O)[C@H](O)[C@@H](O)[C@H]1O (stereo partly drawn) [melibiose] | 490 µM | 1070 µM | – | – | – | – | – | – | – | –
CCCCCCCCCCCCO[C@@H]1O[C@H](CO)[C@@H](O[C@H]2O[C@H](CO)[C@@H](O)[C@H](O)[C@H]2O)[C@H](O)[C@H]1O [DDM, n-dodecyl-β-D-maltoside] | – | – | steady decrease in the substrate binding ability over time | ~10 wt% | no response was observed | responsive to the successive addition of D^2G and melibiose | little DDM-solubilized MelBSt detectable | 6.8 ± 0.6 nm | complete loss in ligand binding ability after a 1-day incubation | 170 µM
